“Also recorded” adds a separate entry of the source. Like-named read-outs stand apart in the source and are kept apart here.

One data set deals with ACP-02 cells. Nature of the data set: Growth inhibition assay (resazurin). Conditions: 2D culture, 72 h, value (± SD). In kind it is cell-based, human.
The next data set has as its system ACP-03 cells. Nature of the data set: Growth inhibition assay (resazurin). The data set is classed as cell-based, human. Conditions: 2D culture, 72 h, value (± SD).
In data set [1] the test system is AGP-01 cells. Nature of the data set: Growth inhibition assay (resazurin). Conditions: 2D culture, 72 h, value (± SD).
The next data set deals with GC patients. Conditions: cited from earlier work; for beneficial effects in clinical trials: NCT00215995, NCT00595985, NCT00725712.
Data set [2] concerns GC cell lines (AGP-01, ACP-02, ACP-03). Nature of the data set: Growth inhibition assay, all GC cell lines. The data set is classed as cell-based, human. Here is the method: All cell lines were cultured in Dulbecco’s Modified Eagle Medium, high Glucose (4.5 g/L), with Sodium Pyruvate and L-glutamin] (DMEM, Lonza, UK), containing 10% foetal bovine serum (FBS) (Invitrogen, USA), 1% antibiotic with 100 IU/ml Penicillin and 100 ug/ml Streptomycin (Invitrogen, USA). The culture medium was changed 2 to 3 times a week and cells were passaged using trypsin/EDTA (Invitrogen, USA).
Resarzurin was used for growth inhibition assays. Briefly, cells (300/well) were plated in 384-well flat-bottomed plates and cultured for 24 h. […] All the following in vitro experiments were performed on metastatic AGP-01 cells.

The test system of data set [3] is AGP-01 cells. Nature of the data set: Cell invasion assay (ECM coated inserts). The data set is classed as cell-based, human. Conditions: 100 nM, 500 nM, 1 μM, 24 h, legend 8 h. How it is done:
Cell migration assays were performed using an IncuCyte® life-cell analysis system (Essen Bioscience, USA). […] Images were captured every 2 h for 48 h and evaluated using the InCucyte® software where the wound width was calculated and expressed as percent relative to the control (0.1% DMSO). Cell invasion was assessed by using the cell invasion assay. A 24-well tissue culture plate (Corning) with cell culture inserts which contained an 8 μm pore size polycarbonate membrane was used. […] After 8 h incubation, cells were removed from the inner surface of the insert using a cotton-tipped swab. […] The number of migrating cells per insert was captured by the Operetta System (Perkin Elmer) and counted automatically.

In data set [4] the test system is AGP-01 cells. Nature of the data set: Morphological analysis. In kind it is cell-based, human. Conditions: 100 nM, 500 nM, 1 μM, 24 h.
For data set [5], the system named is AGP-01 cells. Nature of the data set: Microfilament analysis (cortical actin, confocal). The data set is classed as cell-based, human.
Method: Between each step described above, cells were washed three times with PBS for 5 min at 37°C. […] Images were capture by a laser confocal microscope at 40× (Zeiss, Germany). Image analysis of actin fibers was performed using Acapella (Perkin Elmer). Nuclei were automatically segmented using DAPI channel. Cells were segmented using both DAPI and Actin channels. Dense actin was defined by thresholding to find pixels that were much brighter than their surrounding in the membrane region. The area of dense actin in the membrane region was calculated and normalized to the cell area. Similarly the actin intensity in the membrane region was measured and normalized to the cell area.
The test system of a further data set is kinases. Conditions: beside BCR-ABL and SRC; cited from earlier work.
Data set [6] has as its system peritoneal metastasis of GC. Conditions: xenograft mouse model; oral and intraperitoneal administration; cited from earlier work.
The test system of another data set is kinase targets. Conditions: cited from earlier work.

Regarding `CO[C@H]1C[C@@H]2CC[C@@H](C)[C@@](O)(O2)C(=O)C(=O)N2CCCC[C@H]2C(=O)O[C@H]([C@H](C)C[C@@H]2CC[C@@H](OCCO)[C@H](OC)C2)CC(=O)[C@H](C)/C=C(\C)[C@@H](O)[C@@H](OC)C(=O)[C@H](C)C[C@H](C)/C=C/C=C/C=C/1C` [Everolimus], the IC50 in the data set on ACP-02 cells (Homo sapiens), with ACP-03 cells (Homo sapiens) and with AGP-01 cells [1] was above 20 µM in each case.
Consider “ramucirumab: VEGFR2 inhibitor approved as second line treatment of GC”, for which the “median OS” value in the data set with GC patients (second line, alone or with paclitaxel, local relapsed or metastatic GC) is recorded as “improvement on median OS”.
As for `C=CCN(/C=C1/C(=O)O[C@H](COC)[C@@]2(C)C1=C(O)C(=O)C1=C2[C@H](OC(C)=O)C[C@]2(C)C(=O)CC[C@@H]12)CC=C` [PX-866], the IC50 with ACP-02 cells, with ACP-03 cells and in the data set on AGP-01 cells [1] was above 20 µM throughout.
In the case of `COc1cc2c(Oc3ccc(NC(=O)C4(C(=O)Nc5ccc(F)cc5)CC4)cc3F)ccnc2cc1OCCCN1CCOCC1` [GSK1363089], the “beneficial effects in clinical trials” value in the data set on GC patients is reported as “failed to show beneficial effects”.
For the molecule `N#CC1(c2ccc(NC(=O)c3cccnc3NCc3ccncc3)cc2)CCCC1` [apatinib], the “median OS and progression free survival” value with GC patients (third line therapy for GC) was “significant benefit”.
For the molecule `CCN(CC)CCNC(=O)c1c(C)[nH]c(/C=C2\C(=O)Nc3ccc(F)cc32)c1C` [Sunitinib], the IC50 with ACP-03 cells (Homo sapiens) amounted to 1.97 µM; in the data set on AGP-01 cells [1], 1.53 µM. Besides, the “beneficial effects in clinical trials” value with GC patients is on record as “failed to show beneficial effects”.
Regarding `CCCS(=O)(=O)Nc1ccc(F)c(C(=O)c2c[nH]c3ncc(-c4ccc(Cl)cc4)cc23)c1F` [Vemurafenib], the IC50 in the data set on ACP-02 cells (Homo sapiens), in the data set with ACP-03 cells (Homo sapiens) and with AGP-01 cells [1] was above 20 µM each time.
Consider `CN1CCN(CCOc2cc(OC3CCOCC3)c3c(Nc4c(Cl)ccc5c4OCO5)ncnc3c2)CC1` [Saracatinib], for which the IC50 with ACP-02 cells (Homo sapiens) is 5.94 µM; in the data set with ACP-03 cells (Homo sapiens), 2.8 µM; with AGP-01 cells [1], 2.38 µM.
In the case of `Cc1cn(-c2cc(NC(=O)c3ccc(C)c(Nc4nccc(-c5cccnc5)n4)c3)cc(C(F)(F)F)c2)cn1` [nilotinib], the antiproliferative effect result in data set [2] (GC cell lines, 72 h incubation) is “no proliferation inhibition was observed”.
As to `Cc1ccc(NC(=O)c2ccc(CN3CCN(C)CC3)cc2)cc1Nc1nccc(-c2cccnc2)n1` [imatinib], the antiproliferative effect result in [2] is “no proliferation inhibition was observed”.
As for `Cc1nc(Nc2ncc(C(=O)Nc3c(C)cccc3Cl)s2)cc(N2CCN(CCO)CC2)n1` [Dasatinib], the IC50 came to 1.02 µM with ACP-02 cells (Homo sapiens), 1 µM in data set [2] (72 h incubation) and 0.35 µM in the data set on AGP-01 cells [1]. For the same molecule, in the data set with AGP-01 cells [3], the cell invasion entry is “significantly inhibited; also recorded: Inhibition of cell invasion and migration”. In addition, the “morphology of the cells” value with AGP-01 cells [4] is “morphological changes”. Besides, the “cortical actin in the membrane region” value with AGP-01 cells [5] (confocal imaging, 100 nM, 500 nM, 1 μM, 24 h) is given as “significant increase”. The “area of cortical actin” value with AGP-01 cells [5] (single cells, p-value < 0.01) was “significantly higher”. The “intensity of cortical actin” value in the data set with AGP-01 cells [5] (single cells, p-value < 0.01) was “significantly higher”. Moreover, in the data set with kinases, the “number of additional kinases identified as targets” value is around 40. Besides, the “peritoneal metastasis of GC” value in [6] is “suppressing peritoneal metastasis of GC”. Also, the “number of targets identified” value in the data set on kinase targets is 72.
As for `CC[C@@H]1/C=C(\C)C[C@H](C)C[C@H](OC)[C@H]2O[C@@](O)(C(=O)C(=O)N3CCCC[C@H]3C(=O)O[C@H](/C(C)=C/[C@@H]3CC[C@H](Cl)[C@H](OC)C3)[C@H](C)[C@@H](O)CC1=O)[C@H](C)C[C@@H]2OC` [Pimecrolimus], the IC50 in the data set with ACP-02 cells (Homo sapiens), with ACP-03 cells (Homo sapiens) and in the data set with AGP-01 cells [1] was above 20 µM throughout.
As to `COc1cc2nccc(Oc3ccc(NC(=O)Nc4cc(C)on4)c(Cl)c3)c2cc1OC` [Tivozanib], the IC50 in the data set on ACP-02 cells (Homo sapiens), in the data set with ACP-03 cells (Homo sapiens) and in the data set with AGP-01 cells [1] was above 20 µM each time.
Take `Cc1ccc(Nc2nccc(N(C)c3ccc4c(C)n(C)nc4c3)n2)cc1S(N)(=O)=O` [Pazopanib]: the IC50 in the data set on ACP-02 cells (Homo sapiens), in the data set on ACP-03 cells (Homo sapiens) and with AGP-01 cells [1] was above 20 µM in each case.
For the molecule `CS(=O)(=O)CCNCc1ccc(-c2ccc3ncnc(Nc4ccc(OCc5cccc(F)c5)c(Cl)c4)c3c2)o1` [lapatinib], the “beneficial effects in clinical trials” value with GC patients is reported as “failed to show beneficial effects”.
With `COc1cc2c(Nc3ccc(Br)cc3F)ncnc2cc1OCC1CCN(C)CC1` [Vandetanib], the IC50 in the data set with ACP-02 cells (Homo sapiens), in the data set with ACP-03 cells (Homo sapiens) and in the data set with AGP-01 cells [1] was above 20 µM in each case.
Regarding `N#CC[C@H](C1CCCC1)n1cc(-c2ncnc3[nH]ccc23)cn1` [Ruxolitinib], the IC50 in the data set with ACP-02 cells (Homo sapiens), in the data set on ACP-03 cells (Homo sapiens) and in the data set on AGP-01 cells [1] was above 20 µM throughout.
